Legend:
[1] = biological target: T1, Glutamate dehydrogenase isoform 1 (AtGDH1) (Arabidopsis thaliana, UniProt Q43314); assay: crystal structure at […] Å (one closed subunit; ligand captured from E. coli; polder map); assay type: binding
T1 construct: gene GDH1; full-length, 411 residues, homohexamer

[2] = biological target: T1, Glutamate dehydrogenase isoform 1 (AtGDH1); assay: ITC (in presence of […] 2OG) and crystal structure at […] Å; assay type: binding

T1 sequence (Q43314 whole entry, canonical isoform): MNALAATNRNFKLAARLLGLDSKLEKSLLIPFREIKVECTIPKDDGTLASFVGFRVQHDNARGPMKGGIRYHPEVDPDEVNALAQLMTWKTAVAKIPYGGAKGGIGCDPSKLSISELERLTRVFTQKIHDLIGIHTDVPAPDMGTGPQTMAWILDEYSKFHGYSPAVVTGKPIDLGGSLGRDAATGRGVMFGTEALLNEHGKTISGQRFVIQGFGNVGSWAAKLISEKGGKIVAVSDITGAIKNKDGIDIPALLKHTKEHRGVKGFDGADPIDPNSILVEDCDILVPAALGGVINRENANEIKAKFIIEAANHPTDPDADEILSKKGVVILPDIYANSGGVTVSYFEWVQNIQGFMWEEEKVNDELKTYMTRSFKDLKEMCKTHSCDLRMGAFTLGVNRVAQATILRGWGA

SMILES	crystal structure at 2.03 Å (one closed subunit); ligand captured from E. coli; p [1]	Kd [2]
O=C(O)CCC(=O)C(=O)O [2-oxoglutarate]	the closed conformation subunit contains 2OG, the GDH reaction product, bound in the active site	
NC(=O)c1ccc[n+]([C@@H]2O[C@H](COP(=O)([O-])OP(=O)(O)OC[C@H]3O[C@@H](n4cnc5c(N)ncnc54)[C@H](O)[C@@H]3O)[C@@H](O)[C@H]2O)c1 [NAD^+]		72 ± 6 µM

From PMC7326016, “Structural Studies of Glutamate Dehydrogenase (Isoform 1) From Arabidopsis thaliana, an Important Enzyme at the Branch-Point Between Carbon and Nitrogen Metabolism” (Frontiers in Plant Science, 2020)
